What was measured:
[1] = molecular target: T1, PPARgamma (h) (Homo sapiens, UniProt P37231); assay: Human recombinant (E. coli) PPARgamma (h) binding assay
T1 construct: host or cells: E. coli
T1 sequence (P37231 1-505): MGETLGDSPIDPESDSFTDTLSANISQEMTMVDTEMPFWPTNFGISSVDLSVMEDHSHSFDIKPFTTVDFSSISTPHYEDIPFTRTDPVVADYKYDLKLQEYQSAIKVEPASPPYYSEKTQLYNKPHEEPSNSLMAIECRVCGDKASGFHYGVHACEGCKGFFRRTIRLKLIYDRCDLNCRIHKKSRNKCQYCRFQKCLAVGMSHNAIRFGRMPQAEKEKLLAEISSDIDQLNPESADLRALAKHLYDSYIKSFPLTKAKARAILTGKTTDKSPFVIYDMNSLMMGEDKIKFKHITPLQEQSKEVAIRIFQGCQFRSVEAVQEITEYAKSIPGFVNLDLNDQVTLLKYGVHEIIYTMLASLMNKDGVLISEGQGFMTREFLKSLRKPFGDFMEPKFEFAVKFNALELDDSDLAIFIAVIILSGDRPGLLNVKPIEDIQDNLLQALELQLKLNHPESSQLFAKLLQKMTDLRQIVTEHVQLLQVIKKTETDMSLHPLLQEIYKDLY
Experimental: The results are expressed as a percent of control specific binding ((measured specific binding/control specific binding)×100) obtained in the presence of the test compounds. The IC50 values (concentration causing a half-maximal inhibition of control specific binding) and Hill coefficients (nH) were determined by non-linear regression analysis of the competition curves generated with mean replicate values using Hill equation curve fitting (Y=D+[(A D)/(1+(C/C50)nH)], where Y=specific binding, D=minimum specific binding, A=maximum specific binding, C=compound concentration, C50=IC50, and nH=slope factor). This analysis was performed using a software developed at Cerep (Hill software) and validated by comparison with data generated by the commercial software SigmaPlot® 4.0 for Windows® (© 1997 by SPSS Inc.). The inhibition constants (Ki) were calculated using the Cheng Prusoff equation (Ki=IC50/(1+(L/KD)), where L=concentration of radioligand in the assay, and KD=affinity of the radioligand for the receptor).

[2] = test system: 1.5 μM U-46619-induced platelet aggregation (platelet rich plasma); assay: TP receptor platelet aggregation - rabbit; format: cell-based, New Zealand Rabbit; conditions: Oryctolagus cuniculus, @ 0.1 mM (printed in the 30 μM column)
Text: TP Receptor Platelet Aggregation—Rabbit:
Thrombosis Research 33:277-288

[3] = test system: KKA^y mice; assay: Glucose lowering effect in KKAy mouse model; format: in vivo
Experimental: (§1) 52 male KKA^y mice were obtained commercially (e.g., from Clea Japan) at an age of 6 weeks and put on a high fat diet upon arrival. Individual mice were housed in IVC Type II cages during both the acclimatization and the experimental phase. Both food (high fat diet) and water were supplied ad libitum.
(§2) Mice were randomized into treatment groups according to their 4-h fasting blood glucose.
(§3) 4 hours after the last administration, non-fasting conditions.
(§4) Blood was collected into heparin containing glass capillaries which were subsequently centrifuged in a “Haematokrit 24” centrifuge (Hettich) at 15′200×g for 10 min at room temperature to obtain the hematocrit value.
(§5) The following serum parameters were determined on a COBAS INTEGRA 800 auto analyzer (Roche Diagnostics, Switzerland) using the reagents and protocols provided by the supplier.
(§6) All measurements were made on Day 14 of administration, except for the food intake and body weight measurements that were made on Day 12.

[4] = Glucose lowering effect in KKAy mouse model; format: in vivo; conditions: male, mouse, serum; KKA^y mice, 53 mg/kg BID oral gavage 14 days, 4 hours after the last administration, average ± S.E.M.; read-out: Serum level of the compound
Experimental: as §1, §2, §3, §4, §5, §6

[5] = Blood cell analysis at end of thrombosis experiment; format: in vivo, mouse
Experimental: (§7) The flow in each image is expressed as a percentage of that at the contralateral side, and data are averaged for all 120 images to determine total flow. The same analysis is performed for 10 min intervals (which gives essentially the same information as the area under the curve). […] Flow before treatment is recorded as 100%, and that in occluded arteries as 0%. At the end of the experiment, blood is collected on 0.01M citrate by heart puncture for determination of blood cell counts. Plasma is prepared by centrifugation and stored at −20° C. for determination of drug levels.
Table VI summarizes the results of blood cell analysis performed on a sample taken at the end of the observation period. (Z)-6-((2S,4S,5R)-2-(2-chlorophenyl)-4-(2-hydroxyphenyl)-1,3-dioxan-5-yl)hex-4-enoic is referred to in Table VI as EV.

[6] = test system: mice (FeCl3 induced femoral artery thrombosis); assay: FeCl3 arterial thrombosis mouse model (occlusion time, blood flow); format: in vivo
Experimental: The solutions were diluted 3.3-fold in saline and 100 μl/25 g was injected.
During the experiments, a soluble potassium salt of the drug was provided, diluted in saline. Of this formulation, 100 μl/25 g was injected i.v. in the tail vein (dose of 100 mg/kg).
Aspirin is given the same way at a dose of 200 mg/kg. Clopidogrel is administered by oral gavage at a dose of 20 mg/kg at 6-7 hours prior to the experiment. The solutions were coded (except for clopidogrel) and the operator was blinded to the code. The animals assigned to each group were matched for body weight. All mice used were 8-10 weeks old males and were in a 100% Swiss genetic background.
as §7
Statistical analysis for differences between two groups is performed by non-parametric Student t-test. Occlusion times >30 min were considered equal to 30 min for statistical analysis. It should be noted that this approach may result in a statistical bias, the more so because the number of experiments is not the same in the different groups. Significance is set at p<0.05.

[7] = molecular target: T2, mPPARalphaLBD (Mus musculus, UniProt P23204); assay: PPARalpha transactivation assay; format: cell-based
T2 construct: expressed in transfected cells
T2 sequence (P23204 239-466 limits assumed): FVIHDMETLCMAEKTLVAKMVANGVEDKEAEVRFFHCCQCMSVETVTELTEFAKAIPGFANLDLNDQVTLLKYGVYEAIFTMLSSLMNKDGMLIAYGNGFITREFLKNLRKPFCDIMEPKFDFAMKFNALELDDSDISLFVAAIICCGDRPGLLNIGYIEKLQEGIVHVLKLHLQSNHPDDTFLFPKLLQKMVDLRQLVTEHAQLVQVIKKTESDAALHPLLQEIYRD
Experimental: This example describes a transactivation assay for determining PPARalpha modulating activity.
DPD and other ligands are tested for their ability to transactivate PPARalpha essentially as described in Example 22.

[8] = 53 mg/kg BID oral gavage 14 days, Day 14, average ± S.E.M.
[9] = 30 mg/kg vehicle i.v., n = 4, mean ± SEM
[10] = 100 mg/kg vehicle i.v., n = 9, mean ± SEM

In the case of `O=C(O)CC/C=C\C[C@H]1COC(c2ccccc2Cl)O[C@H]1c1ccccc1O` (single isomer, unassigned) [Compound A], the “PPARgamma binding @ 30 μM” value ([1]; @ 30 μM) is reported as “no binding” and the inhibition at 100 µM [2] is reported as 15%.

`O=C(O)CC/C=C\C[C@@H]1CO[C@H](c2ccccc2Cl)O[C@@H]1c1ccccc1O` (single isomer, unassigned) [Compound B] gave an ALP [3, 8] of 21.5 ± 1.6 dU/L, an ALT [3, 8] of 5.1 ± 0.6 dU/L and an AST [3, 8] of 7.7 ± 1.0 dU/L. For the same molecule, the Hematocrit [3, 8] was 40.1 ± 1.6%, the “Serum Glucose” value [3, 8] was “decreased” and the FFA ([3]; 53 mg/kg BID oral gavage 14 days, Day 14, average ± S.E.M., listed as (Z)-6-(2S,4S,5R)-2-(2-chlorophenyl)-4-(2-hydroxyphenyl)-1,3-dioxan-5-yl(hex-4-e, 53 mg/kg)) was “slightly decreased”. For the same molecule, the “Food Intake” value ([3]; 53 mg/kg BID oral gavage, Day 12, average ± S.E.M.) was 5.0 ± 0.6 g/day, the concentration at 4 h [4] was 161 ± 60 ng/mL and the Hematocrit [5, 9] was 62 ± 7.3%. For the same molecule, the Hemoglobin [5, 9] was 15 ± 0.28 g/dL, the Lymphocytes [5, 9] was 42 ± 4.7% and the Neutrophils [5, 9] was 56 ± 5.3%. The Platelets [5, 9] was 1020 ± 89 ×10^3/μl, the Red blood cells [5, 9] was 9.1 ± 0.26 ×10^6/μl and the White blood cells [5, 9] was 0.95 ± 0.17 ×10^3/μl. For the same molecule, the Hematocrit [5, 10] was 70 ± 3.5%, the Hemoglobin [5, 10] was 15 ± 0.30 g/dL and the Lymphocytes [5, 10] was 58 ± 11%. The Neutrophils [5, 10] was 34 ± 12%, the Platelets [5, 10] was 895 ± 46 ×10^3/μl and the Red blood cells [5, 10] was 9.2 ± 0.17 ×10^6/μl. The White blood cells [5, 10] was 1.5 ± 0.46 ×10^3/μl, the occlusion time ([6]; 30 mg/kg in vehicle (DMSO/PEG 400) i.v.) was “slightly prolongs the occlusion time as compared to aspirin (p=0.024), but has no effect as compared to vehicle” and the total blood flow ([6]; 30 mg/kg in vehicle i.v.) was “no effect”. The “blood flow, time window 0-10 min” value ([6]; 100 mg/kg in vehicle i.v.) was “significantly higher flow as compared to aspirin (p=0.0002) but not as compared to vehicle only (p=0.11)” and the total blood flow ([6]; 100 mg/kg in vehicle i.v.) was “improved total blood flow as compared to aspirin (p=0.055), but not as compared to vehicle (p=0.45)”.

In the case of `CC(C)(Sc1ccc(CCN(CCCCC2CCCCC2)C(=O)NC2CCCCC2)cc1)C(=O)O` [GW7647, reference compound], the “increase in PPARalpha transactivation” value [7] is reported as “over 2 fold”.

With `COc1ccc(C(=O)NCc2cccnc2)cc1C(=O)NCc1cccnc1` [Picotamide, reference compound] the “PPARgamma binding @ 10 μM” value ([1]; @ 10 μM) was “no binding”.

In the case of `CN(CCOc1ccc(CC2SC(=O)NC2=O)cc1)c1ccccn1` (stereo not shown) [Rosiglitazone, rosiglitazone, reference compound], the Heart weight ([3]; 5 mg/kg BID oral gavage 14 days, Day 14, average ± S.E.M., 5 mg/kg) is reported as “increased”.
